Data reported in US20160067246A1, “USE OF PHOSPHODIESTERASE 5A INHIBITORS FOR THE TREATMENT OF MUSCULAR DYSTROPHY” (CEDARS-SINAI MEDICAL CENTER, priority 2013, published 2016).

Experiment: Tadalafil blood levels by HPLC/tandem MS in BMD patients
Type: in vivo, human
Procedure: The order of tadalafil/placebo was random. The research pharmacist placed tadalafil tablets or lactose powder (placebo) in opaque capsules to blind patients and investigators, both for the test dose and study dose of drug or placebo. Patients were queried about potential tadalafil-specific side-effects both for safety monitoring and to assess whether blinding was maintained. tadalafil blood levels were measured using high performance liquid chromatography/tandem mass spectrometry (NMS Labs Willow Grove, Pa.).

CN1CC(=O)N2[C@H](c3ccc4c(c3)OCO4)c3[nH]c4ccccc4c3C[C@@H]2C1=O [tadalafil]
peak blood concentration of tadalafil in patient P10 (no sympatholysis) (BMD patient P10, 20 mg oral): 300 ng/mL | peak tadalafil blood concentration, mean (BMD patients, 20 mg oral): 260 ± 13 ng/mL | peak tadalafil blood concentrations, range (BMD patients, 20 mg oral): 170 to 310 ng/mL
